Laboratory results: ChEMBL document CHEMBL1141828, “Artoindonesianins A and B, two new prenylated flavones from the root of Artocarpus champeden” (J Nat Prod, 1999)
Values after ≈ are worked out from the molar mass of the structure shown.

Tested on: P388
Experiment: Cytotoxicity against mouse P388 cells by microculture tetrazolium assay
Assay type: functional, cell-based

| Compound | IC50 [mg/L] |
| --- | --- |
| CC(C)=CCC/C(C)=C/Cc1c2c(c(O)c3c(=O)c4c(oc13)-c1c(O)cc(O)c3c1C(C4)C(C)(C)O3)C=CC(C)(C)O2 (configuration not stated) [ARTOINDONESIANIN A] | 21 (≈ 36.8 µM) |
| COc1cc2oc3c(c(=O)c2c(O)c1/C=C/C(C)C)CC(C(C)(C)OO)Oc1cc(O)ccc1-3 (configuration not stated) [ARTOINDONESIANIN B] | 3.9 (≈ 8.32 µM) |
